This passage reports TGI results from PubChem BioAssay (NCI).

Molecules are shown by their SMILES.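 Each compound was tested at five concentrations against cells in 96-well plates for 48 hours. TGI: concentration producing complete growth inhibition.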 Residues, ends and D or L forms follow the SMILES beside them. *: point of attachment. Boc = CC(C)(C)OC(=O)*; OBn = c1ccc(CO*)cc1

Common to all, as to experiment: inhibition of tumour cell growth, NCI panel, 48 h
Experiment [1] deals with SNB-19 CNS.
Experiment [2] relates to SW-620 colon.
The subject of experiment [3] is 786-0 renal.
The test system of experiment [4] is SR leukemia.
The test system of experiment [5] is CCRF-CEM leukemia.
Experiment [6] deals with MCF7 breast.
Experiment [7] relates to SK-OV-3 ovarian.
Experiment [8] relates to HCT-116 colon.
Experiment [9] concerns MDA-MB-435.
The subject of experiment [10] is HL-60(TB) leukemia.
Experiment [11] deals with UACC-257 melanoma.
The subject of experiment [12] is K-562 leukemia.
The subject of experiment [13] is RXF 393 renal.

Consider `C=C1C(=O)OC2CC(=C)C3CC=C(C)C3CC12` (stereo not given), for which the TGI is 54.5 µM in experiment [1]; 32.4 µM in experiment [2]; 31.3 µM in experiment [3]; 55.6 µM in [4]; over 100 µM in experiment [5]; 55.3 µM in experiment [6]. Moreover, the TGI in experiment [7] was determined as 80 µM; in experiment [8], 50.4 µM; in [9], 32.6 µM; in experiment [10], 87.1 µM; in experiment [11] it was 27.5 µM; in experiment [12] it was 24.4 µM.
As for `CC(C)CC(NC(=O)OC(C)(C)C)C(=O)N1CCCC1C(=O)OCc1ccccc1` (stereo not drawn) (Boc-Leu-Pro-OBn; configuration not given here), the TGI in experiment [1], in experiment [2], in [3], in experiment [4], in experiment [6] and in experiment [7] was over 100 µM in each case. Moreover, the TGI in [8], in experiment [13], in experiment [9], in experiment [11] and in experiment [12] was over 100 µM in each case.
Regarding `Fc1cccc(Cl)c1C1SCc2nc3cc4ccccc4cc3n21` (stereo not given), the TGI in [1], in experiment [2], in experiment [3], in experiment [4], in experiment [5] and in experiment [6] was over 100 µM each time. Also, the TGI in experiment [7], in experiment [8], in experiment [13], in experiment [9], in experiment [11] and in experiment [12] was over 100 µM throughout.
Consider `O=C(O)CNn1c(SCC(=O)O)nnc(/C=C/c2c(O)ccc3ccccc23)c1=O`, for which the TGI in [1] was over 100 µM; in [2], over 100 µM; in experiment [3], over 100 µM; in [4], 60 µM; in experiment [5], 14.9 µM; in [6] it was over 100 µM. Besides, the TGI in [7] is over 100 µM; in experiment [8], over 100 µM; in [9], over 100 µM; in [10] it was 25.9 µM; in [11] it was over 100 µM; in experiment [12], 62.7 µM.
Regarding `CCOC(=O)/C=C/[C@H](O)[C@@H](O)/C=C/C(=O)OCC`, the TGI in [1] was 58.2 µM; in experiment [2], 40.6 µM; in experiment [3] it was over 100 µM; in experiment [4], 40 µM; in experiment [5] it was 32.6 µM; in [6] it was 79.7 µM. The TGI was over 100 µM in [7]; 43 µM in experiment [8]; 79.4 µM in experiment [13]; over 100 µM in [9]; over 100 µM in experiment [11]; 27.7 µM in experiment [12].
With `CC(C)(C)OC/C=C1\C(=O)O[C@H]2C[C@@H](O[Si](C)(C)C(C)(C)C)C[C@@H]12`, the TGI in experiment [1], in experiment [2], in [3], in [4], in experiment [5] and in experiment [6] was over 100 µM throughout. For the same compound, the TGI in experiment [7], in experiment [8], in experiment [13], in experiment [9], in experiment [11] and in experiment [12] was over 100 µM throughout.
Take `[O-][N+]1=NC(c2ccccc2)=C1c1ccccc1`: the TGI in experiment [1], in experiment [2], in experiment [3], in experiment [5], in experiment [6] and in [7] was over 50 µM in each case. Also, the TGI in experiment [8], in experiment [13], in experiment [9], in experiment [10], in experiment [11] and in experiment [12] was over 50 µM each time.
As for `COC(=O)[C@@H](Cc1ccccc1)N1O[C@]12CCCC[C@@H]2NC(=O)OC(C)(C)C` (stereo not given in full), the TGI in [1] was over 100 µM; in experiment [2], 29.3 µM; in experiment [3], 51.3 µM; in [4] it was 74.4 µM; in experiment [5] it was 35.9 µM; in experiment [6], 28.5 µM. Further, the TGI is over 100 µM in experiment [8]; 56.1 µM in [13]; 54.5 µM in experiment [9]; over 100 µM in experiment [11]; over 100 µM in [12].
Regarding `NC(=O)C(=O)C(c1ccccc1)S(=O)(=O)Cc1ccccc1` (stereo not given), the TGI in experiment [1], in experiment [2], in experiment [3], in experiment [4], in [5] and in experiment [6] was over 100 µM each time. Further, the TGI in [7], in [8], in experiment [13], in experiment [9], in experiment [11] and in experiment [12] was over 100 µM throughout.
In the case of `CCOC(=O)c1c(-c2ccc(Br)cc2)ccn1C`, the TGI in [1], in [2], in experiment [3], in experiment [5], in [6] and in experiment [7] was over 10 µM throughout. The TGI in experiment [8], in experiment [13], in [9], in [10], in [11] and in [12] was over 10 µM each time.
In the case of `O=C(N/N=C/c1ccccc1O)c1ccccc1Nc1ccccc1C(=O)N/N=C/c1ccccc1O`, the TGI is over 100 µM in experiment [1]; over 100 µM in [2]; over 24.2 µM in [3]; over 100 µM in [5]; over 100 µM in experiment [6]; over 100 µM in [7]. The TGI in [8] was 3.5 µM; in experiment [13], over 100 µM; in experiment [9], over 30.7 µM; in experiment [10] it was over 100 µM; in experiment [11] it was over 100 µM; in [12] it was over 100 µM.
